Two molecules from patent US20250241990A1, “THERAPEUTIC AGENT” (priority 2022, published 2025) can be followed below.

The experiment relates to E. coli CFT073. In words: Irf3−/− mice infected with E. coli CFT073 by intravesical instillation; genetic model of acute pyelonephritis and urosepsis. The experiment is classed as in vivo. As to conditions: for bacterial growth in urine: at day 21 and 42; for long term protection against infection and inflammation: daily i.p. treatment for 7 days, follow-up to day 42, FIG. 2; for urine neutrophil numbers: long-term follow-up (day 21 and 42). The protocol:
Irf3^−/− mice were infected with E. coli CFT073 (50 μl of 2.109 cfu/ml) by intravesical instillation. Intraperitoneal treatment was administered daily, starting 6 hours after infection and for 7 days. Mice were treated with recombinant NIpD protein (105 μg in 100 μl) or IL-1RA (Anakinra, 1 mg/kg, 100 μl). Control mice received PBS. Urine sampling for bacterial and neutrophil counts were done on day 1, 3, 5 and 7 in one group of animals (those sacrificed on day 7), and on day 1, 3, 5, 7, 21 and 42 in others.
Animals were sacrificed under anesthesia; kidneys and bladders were asceptically removed and in the case of bladders, macroscopic pathology was documented by photography. Tissues were fixed with 4% paraformaldehyde or frozen for sectioning and RNA extraction. Viable counts in homogenized tissues (Stomacher 80, Seward Medical) were determined on TSA (37° C., overnight). Urine samples were collected prior to and at regular times after infection and quantitatively cultured. Neutrophils in uncentrifuged urine were counted, using a hemocytometer.

As to “IL-1RA: interleukin-1 receptor antagonist (IL-1 RA), anakinra”, the “bacterial growth in urine” value is on record as “no bacterial growth in urine”; the “long term protection against infection and inflammation” value is on record as “long term protection”; the urine neutrophil numbers entry is given as “low urine neutrophil numbers”.

B1: NIpD: recombinant NIpD protein; bacterial protein, e.g. from E. coli 83972; may comprise or consist of SEQ ID NO: 1 (protein, listed as Escherichia coli)
chain: MSAGSPKFTVRRIAALSLVSLWLAGCSDTSNPPAPVSSVNGNAPANTNSGMLITPPPKMGTTSTAQQPQIQPVQQPQIQATQQPQIQPMQPVAQQPVQMENGRIVYNRQYGNIPKGSYSGSTYTVKKGDTLFYIAWITGNDFRDLAQRNNIQAPYALNVGQTLQVGNASGTPITGGNAITQADAAEQGVVIKPAQNSTVAVASQPTITYSESSGEQSANKMLPNNKPTATTVTAPVTVPTASTTEPIVSSTSTSTPISTWRWPTEGKVIETFGASEGGNKGIDIAGSKGQAIIATADGRVVYAGNALRGYGNLIIIKHNDDYLSAYAHNDTMLVREQQEVKAGQKIATMGSTGTSSTRLHFEIRYKGKSVNPLRYLPQR
For B1, the “bacterial growth in urine” value was “no bacterial growth in urine”; the “long term protection against infection and inflammation” value is on record as “long term protection”; the urine neutrophil numbers result is on record as “low urine neutrophil numbers”.
